Reference: patent publication US11447472B2, “Polymorophs of 5-aza-4′-thio-2′-deoxycytidine” (Southern Research Institute, priority 2020, dated 2022)
Values joined by “and” are separate entries in the source; they are usually repeats but may differ in a detail not shown here. Identical values can stand only once. Like-named read-outs stand apart in the source and are kept apart here. Values belong to the compound of their own block, whether it stands above or below them.

Columns and labels:
[1] = Dissolution rate (IDR) at pH 1.2, 6.5 and 5.0; type: physicochemical
K562 cell lines = assay: CellTiter-Glo cell viability, K562; type: cell-based; conditions: K562, 3 days, FIG. 23
Protocol: (§1) K562 and HL-60 cell lines were cultured and maintained in RPMI (10% FBS, 1% Penicillin-Streptomycin) medium at 37° C., 95% Air, and 5% CO2. K562 and HL-60 cell lines were each seeded in 96-well plates at a density of 3000 cells/well (90 μl). Form A and SM were treated in each well at a final concentration of 10 μM by treating 10 μl using 3-fold dilution. The cells were incubated for 3 days at 37° C., 95% Air, and 5% CO2. 96-well plates were placed in room temperature for 30 minutes in order to equilibrate. Then, 100 μl of CellTiter-Glo® Luminescent Cell Viability Assay Reagent was added in 96-wells and incubated for 10 minutes in room temperature. Luminescence was measured using Luminometer and IC50 value was analyzed using GraphPrism.

HL-60 cell lines = assay: CellTiter-Glo cell viability, HL-60; type: cell-based; conditions: HL-60, 3 days, FIG. 24
Protocol: as §1

[2] = Pharmacokinetics of capsules in male SD rats; conditions: 2 mg/kg; for AUC(0-inf) / AUC(0-t) / Cmax / MRT inf / half-life / Tmax: po; for AUC(0-inf): AUCInf; for AUC(0-t): AUClast; for MRT inf: MRTInf_obs
tumor = assay: Tumor size (in vivo luciferase activity) in female NOD-SCID mice; conditions: for tumor size (in vivo luciferase activity): 5 days on, 2 days rest, 9 days rest, repeated, FIG. 17
Protocol: Aza-T-dCyd starting material (SM) was administered to […] female NOD-SCID mice splitting into four groups. Group 1 was a vehicle control group. In group 2, 2.0 mg/kg of aza-T-dCyd starting material (SM) was administered once a day, and in group 3, 1.0 mg/kg of aza-T-dCyd starting material (SM) was administered twice a day. In groups 2 and 3, aza-T-dCyd starting material (SM) in the above amounts was administered for 5 days followed by 2 days as a rest period, and was administered again for another 5 days followed by 9 days as another rest period. This cycle was repeated. In group 4, 1.0 mg/kg of aza-T-dCyd starting material (SM) was administered once a day for five days followed by 2 days as a rest period, and this cycle was repeated.

[3] = test system: blood cancer cells (Mv4-11); assay: IC50 in blood cancer cells (Mv4-11) at different exposure times; type: cell-based; conditions: Homo sapiens
Protocol: Furthermore, the half maximal inhibitory concentration (IC50) was measured at 1 hr, 2 hr, and 4 hr after the blood cancer cells (Mv4-11) were treated with aza-T-dCyd starting material (SM). […] In addition, the measured IC50 at 4 hr was about 80 nM, which was much higher than the expected value of 20 nM. Therefore, it was confirmed that the efficiency of aza-T-dCyd starting material (SM) greatly decreases as the exposure time of the compound to the cells increases.

[4] = 0.25 h, capsule (8:92 w/w with microcrystalline cellulose), male SD rat
[5] = 0.25 h, capsule, mean of two male SD rats
[6] = 0.5 h, capsule, mean of two male SD rats
[7] = capsule, mean of two male SD rats
[8] = male, SD, rat, plasma, Mean, capsule, mean of two male SD rats
[9] = male, SD, rat, plasma, individual rat, capsule, male SD rat

IDR ([1]; FaSSIF, pH 6.5): 2.2 ± 0.06 mg/mL/Cm^2/min
IDR ([1]; FeSSIF, pH 5.0): 4.6 ± 0.07 mg/mL/Cm^2/min
IDR ([1]; SGF, pH 1.2): 7.4 ± 0.21 mg/mL/Cm^2/min
IC50 value lower than SM (K562 cell lines): about 5%
IC50 value lower than SM (HL-60 cell lines): about 5%
Concentration (plasma), individual rat [2, 4]: 77.2 ng/mL and 511 ng/mL
Concentration (plasma), Mean [2, 5]: 294 ng/mL
Concentration (plasma), individual rat ([2]; 0.5 h, capsule, male SD rat): 254 ng/mL and 721 ng/mL
Concentration (plasma), Mean [2, 6]: 488 ng/mL
Concentration (plasma), individual rat ([2]; 1 h, capsule, male SD rat): 815 ng/mL and 912 ng/mL
Concentration (plasma), Mean ([2]; 1 h, capsule, mean of two male SD rats): 864 ng/mL
Concentration (plasma), individual rat ([2]; 2 h, capsule, male SD rat): 677 ng/mL and 645 ng/mL
Concentration (plasma), Mean ([2]; 2 h, capsule, mean of two male SD rats): 661 ng/mL
Concentration (plasma), individual rat ([2]; 4 h, capsule, male SD rat): 556 ng/mL and 420 ng/mL
Concentration (plasma), Mean ([2]; 4 h, capsule, mean of two male SD rats): 488 ng/mL
Concentration (plasma), individual rat ([2]; 6 h, capsule, male SD rat): 397 ng/mL and 307 ng/mL
Concentration (plasma), Mean ([2]; 6 h, capsule, mean of two male SD rats): 352 ng/mL
Concentration (plasma), individual rat ([2]; 8 h, capsule, male SD rat): 261 ng/mL and 210 ng/mL
Concentration (plasma), Mean ([2]; 8 h, capsule, mean of two male SD rats): 236 ng/mL
Concentration (plasma), individual rat ([2]; 24 h, capsule, male SD rat): 6.71 ng/mL and 4.29 ng/mL
Concentration (plasma), Mean ([2]; 24 h, capsule, mean of two male SD rats): 5.50 ng/mL
AUCInf, individual rat ([2]; capsule, male SD rat): 6079 ng·h/mL and 5446 ng·h/mL
AUC_%Extrap_obs, individual rat ([2]; capsule, male SD rat): 0.485% and 0.329%
AUClast, individual rat ([2]; capsule, male SD rat): 6050 ng·h/mL and 5428 ng·h/mL
AUClast/D, individual rat ([2]; capsule, male SD rat): 3020 ng·h/mL per mg/kg and 2710 ng·h/mL per mg/kg
Cmax, individual rat ([2]; capsule, male SD rat): 815 ng/mL and 912 ng/mL
MRTInf_obs, individual rat ([2]; capsule, male SD rat): 5.40 h and 4.83 h
T1/2, individual rat ([2]; capsule, male SD rat): 3.05 h and 2.89 h
Tmax, individual rat ([2]; capsule, male SD rat): 1.00 h
AUC values higher than SM ([2]; capsule, male SD rats): about 30%
Cmax value relative to SM ([2]; capsule, male SD rats, higher than SM): about 1.3 times
AUCInf, Mean [2, 7]: 5763 ng·h/mL
AUC_%Extrap_obs, Mean [2, 7]: 0.407%
AUClast, Mean [2, 7]: 5739 ng·h/mL
AUClast/D, Mean [2, 7]: 2870 ng·h/mL per mg/kg
Cmax, Mean [2, 7]: 864 ng/mL
MRTInf_obs, Mean [2, 7]: 5.11 h
T1/2, Mean [2, 7]: 2.97 h
Tmax, Mean [2, 7]: 1.00 h
Structure (SMILES): Nc1ncn([C@H]2C[C@H](O)[C@@H](CO)S2)c(=O)n1 [Form A, 5-Aza-4′-thio-2′-deoxycytidine]

IC50 ([3]; Mv4-11, 1 hr after treatment, read-out: measured IC50 at 1 hr): ~160 nM
IC50 ([3]; Mv4-11, 2 hr after treatment, read-out: measured IC50 at 2 hr): ~120 nM
IC50 ([3]; Mv4-11, 4 hr after treatment, read-out: measured IC50 at 4 hr): ~80 nM
IC50 ([3]; Mv4-11, expected from the IC50 measured at 1 hr, read-out: expected IC50 at 2 hr): 80 nM
IC50 ([3]; Mv4-11, expected from the IC50 measured at 1 hr, read-out: expected IC50 at 4 hr): 20 nM
Concentration (plasma), individual rat [2, 4]: 29.1 ng/mL and 64.9 ng/mL
Concentration (plasma), Mean [2, 5]: 47.0 ng/mL
Concentration (plasma), individual rat ([2]; 0.5 h, capsule, male SD rat): 123 ng/mL and 243 ng/mL
Concentration (plasma), Mean [2, 6]: 183 ng/mL
Concentration (plasma), individual rat ([2]; 1 h, capsule, male SD rat): 321 ng/mL and 610 ng/mL
Concentration (plasma), individual rat ([2]; 2 h, capsule, male SD rat): 613 ng/mL
Concentration (plasma), individual rat ([2]; 4 h, capsule, male SD rat): 442 ng/mL
Concentration (plasma), individual rat ([2]; 6 h, capsule, male SD rat): 283 ng/mL
Concentration (plasma), individual rat ([2]; 8 h, capsule, male SD rat): 199 ng/mL
Concentration (plasma), individual rat ([2]; 24 h, capsule, male SD rat): 2.65 ng/mL and 4.48 ng/mL
AUCInf, individual rat ([2]; capsule, male SD rat): 4780 ng·h/mL
AUC_%Extrap_obs, individual rat ([2]; capsule, male SD rat): 0.255% and 0.402%
AUClast, individual rat ([2]; capsule, male SD rat): 4761 ng·h/mL
AUClast/D, individual rat ([2]; capsule, male SD rat): 2030 ng·h/mL per mg/kg and 2380 ng·h/mL per mg/kg
Cmax, individual rat ([2]; capsule, male SD rat): 613 ng/mL
MRTInf_obs, individual rat ([2]; capsule, male SD rat): 5.23 h
T1/2, individual rat ([2]; capsule, male SD rat): 2.98 h
AUC_%Extrap_obs, Mean [2, 7]: 0.329%
AUClast/D, Mean [2, 7]: 2210 ng·h/mL per mg/kg
concentration at 1 h ([2]; male, SD, rat, plasma, oral, Concentration (plasma), Mean, 1 h, capsule, mean of two male SD rats): 466 ng/mL
concentration at 2 h ([2]; male, SD, rat, plasma, oral, Concentration (plasma), Mean, 2 h, capsule, mean of two male SD rats): 657 ng/mL
concentration at 4 h ([2]; male, SD, rat, plasma, oral, Concentration (plasma), Mean, 4 h, capsule, mean of two male SD rats): 415 ng/mL
concentration at 6 h ([2]; male, SD, rat, plasma, oral, Concentration (plasma), Mean, 6 h, capsule, mean of two male SD rats): 272 ng/mL
concentration at 8 h ([2]; male, SD, rat, plasma, oral, Concentration (plasma), Mean, 8 h, capsule, mean of two male SD rats): 178 ng/mL
concentration at 24 h ([2]; male, SD, rat, plasma, oral, Concentration (plasma), Mean, 24 h, capsule, mean of two male SD rats): 3.57 ng/mL
concentration at 2 h ([2]; male, SD, rat, plasma, oral, Concentration (plasma), individual rat, 2 h, capsule, male SD rat): 700 ng/mL
concentration at 4 h ([2]; male, SD, rat, plasma, oral, Concentration (plasma), individual rat, 4 h, capsule, male SD rat): 387 ng/mL
concentration at 6 h ([2]; male, SD, rat, plasma, oral, Concentration (plasma), individual rat, 6 h, capsule, male SD rat): 261 ng/mL
concentration at 8 h ([2]; male, SD, rat, plasma, oral, Concentration (plasma), individual rat, 8 h, capsule, male SD rat): 156 ng/mL
AUC(0-inf) [2, 8]: 4430 ng·h/mL
AUC(0-inf) [2, 9]: 4080 ng·h/mL
AUC(0-t) [2, 8]: 4410 ng·h/mL
AUC(0-t) [2, 9]: 4060 ng·h/mL
Cmax [2, 8]: 657 ng/mL
Cmax [2, 9]: 700 ng/mL
MRT inf [2, 8]: 5.15 h
MRT inf [2, 9]: 5.06 h
half-life ([2]; male, SD, rat, plasma, T1/2, Mean, capsule, mean of two male SD rats): 2.85 h
half-life ([2]; male, SD, rat, plasma, T1/2, individual rat, capsule, male SD rat): 2.72 h
Tmax [2, 8]: 2 h
Tmax [2, 9]: 2 h
Structure (SMILES): Nc1ncn([C@H]2C[C@H](O)[C@@H](CO)S2)c(=O)n1 [SM, 5-Aza-4′-thio-2′-deoxycytidine]
tumor size on day 43 (tumor; Group 2 (2.0 mg/kg, once a day) compared with 'Group 1 (1.0 mg/kg, twice a day)', FIG. 18): significantly smaller
tumor size (in vivo luciferase activity) (tumor; Group 2: 2.0 mg/kg once a day): most greatly suppressed
tumor size (in vivo luciferase activity) (tumor; Group 3: 1.0 mg/kg twice a day): sharply increased after 40 days
